The values below come from patent US20170094996A1, “PROCESS FOR REBAUDIOSIDE D” (EPC (BEIJING) NATURAL PRODUCTS CO., LTD., priority 2009, published 2017).

The conditions of assay [1]: compared with stevioside; Phytochemistry 68, 2007, 1855-1863; cited from earlier work.
Assay [2] in a line: Sensorical analysis of 3 samples steviol-glycosides, trained panel of 6 test persons. It counts as in vivo, human. As to conditions: 200 ppm solutions in water, 100 ml, blinded. On the procedure: Trained panel of 6 test persons.
Samples were prepared as 200 ppm solutions in water (same temperature).
Each test person received 3 equal glasses with 100 ml of prepared sample. The glasses were denoted with random 3-digit numbers.
The question asked was: “Can you taste a difference between the samples and if so please describe the difference in plain text”.
After the tasting period, the panel exchanged the individual opinions and came to following conclusion (the nature of sample was kept hidden until the conclusion was reached): […]

Consider `C=C1C[C@@]23CC[C@H]4[C@@](C)(CCC[C@@]4(C)C(=O)O[C@@H]4O[C@H](CO)[C@@H](O)[C@H](O)[C@H]4O)[C@@H]2CC[C@]1(O[C@@H]1O[C@H](CO)[C@@H](O)[C@H](O[C@@H]2O[C@H](CO)[C@@H](O)[C@H](O)[C@H]2O)[C@H]1O[C@@H]1O[C@H](CO)[C@@H](O)[C@H](O)[C@H]1O)C3` [Rebaudioside A], for which, in assay [1], the taste quality entry is “better than stevioside”. For the same compound, in assay [2], the “bitter after taste (panel conclusion)” value is reported as “slight bitter after taste” and the “sweetness compared with the other samples (panel conclusion)” value is “slightly less sweet than the 2 other samples”.
